Laboratory results published in PubChem BioAssay AID256 (DTP/NCI, 2004).
Where “and” joins values, the source holds several entries; their conditions need not be identical. Identical values can stand only once. Toxic doses and inconclusive results are not listed. Rule for the calls: active = survival T/C of 150% or more; inactive = T/C below 125% in these data.

System: CD2F1 mice, L1210 leukemia ip, survival T/C
Experiment: NCI In Vivo Anticancer Drug Screen. Data for tumor model L1210 Leukemia (intraperitoneal) in CD2F1 (CDF1) mice
Conditions: higher = longer survival
Summary of the method: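 Transplantable tumor in mice; compound-treated vs vehicle-treated groups. Read-out = treated/control ratio of the measured endpoint.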

[1] = endpoint: mean survival time, dose: 100.0 mg/kg/injection, schedule: Q01DX001 (ip), vehicle: saline
[2] = endpoint: mean survival time, dose: 75.0 mg/kg/injection, schedule: Q01DX001 (ip), vehicle: saline
[3] = endpoint: mean survival time, dose: 150.0 mg/kg/injection, schedule: Q01DX001 (ip), vehicle: saline
[4] = endpoint: mean survival time, dose: 300.0 mg/kg/injection, schedule: Q01DX001 (ip), vehicle: saline
[5] = endpoint: mean survival time, dose: 100.0 mg/kg/injection, schedule: Q01DX001 (ip), vehicle: saline with Tween-80
[6] = endpoint: mean survival time, dose: 100.0 mg/kg/injection, schedule: Q04DX003 (ip), vehicle: saline with Tween-80
[7] = endpoint: mean survival time, dose: 200.0 mg/kg/injection, schedule: Q01DX001 (ip), vehicle: saline with Tween-80
[8] = endpoint: mean survival time, dose: 200.0 mg/kg/injection, schedule: Q01DX001 (ip), vehicle: saline
[9] = endpoint: mean survival time, dose: 400.0 mg/kg/injection, schedule: Q01DX001 (ip), vehicle: saline
[10] = endpoint: mean survival time, dose: 50.0 mg/kg/injection, schedule: Q01DX009 (ip), vehicle: saline with Tween-80
[11] = endpoint: mean survival time, dose: 100.0 mg/kg/injection, schedule: Q01DX009 (ip), vehicle: saline with Tween-80
[12] = endpoint: mean survival time, dose: 100.0 mg/kg/injection, schedule: Q01DX009 (ip), vehicle: saline
[13] = endpoint: mean survival time, dose: 200.0 mg/kg/injection, schedule: Q01DX009 (ip), vehicle: saline
[14] = endpoint: mean survival time, dose: 400.0 mg/kg/injection, schedule: Q01DX009 (ip), vehicle: saline
[15] = endpoint: mean survival time, dose: 200.0 mg/kg/injection, schedule: Q04DX003 (ip), vehicle: saline with Tween-80
[16] = endpoint: mean survival time, dose: 400.0 mg/kg/injection, schedule: Q01DX001 (ip), vehicle: saline with Tween-80
[17] = endpoint: mean survival time, dose: 400.0 mg/kg/injection, schedule: Q04DX003 (ip), vehicle: saline with Tween-80
[18] = endpoint: mean survival time, dose: 200.0 mg/kg/injection, schedule: Q01DX009 (ip), vehicle: saline with Tween-80
[19] = endpoint: mean survival time, dose: 400.0 mg/kg/injection, schedule: Q01DX009 (ip), vehicle: saline with Tween-80

Measured: T/C

Oc1cc(O)c(Cl)cc1Cl
inactive: endpoint: mean survival time, dose: 25.0 mg/kg/injection, schedule: Q01DX001 (ip), vehicle: saline 103 % of control | endpoint: mean survival time, dose: 50.0 mg/kg/injection, schedule: Q01DX001 (ip), vehicle: saline 95 % of control | [1] 95 % of control and 104 % of control

CN1C2CCC1C(CO)C(O)C2 (configuration not stated)
inactive: endpoint: mean survival time, dose: 100.0 mg/kg/injection, schedule: Q04DX002 (ip), vehicle: saline 105 % of control | endpoint: mean survival time, dose: 200.0 mg/kg/injection, schedule: Q04DX002 (ip), vehicle: saline 94 % of control | endpoint: mean survival time, dose: 400.0 mg/kg/injection, schedule: Q04DX002 (ip), vehicle: saline 97 % of control

CCCCCCC(C#N)C(=O)OCC (configuration not stated)
inactive: [2] 100 % of control | [3] 96 % of control | [4] 100 % of control

CC(=O)OC1(C)CC(C)(C)N=N1 (configuration not stated)
inactive: endpoint: mean survival time, dose: 25.0 mg/kg/injection, schedule: Q01DX009 (ip), vehicle: Klucel (hydroxypropylcellulose) (HPC) 97 % of control | endpoint: mean survival time, dose: 50.0 mg/kg/injection, schedule: Q01DX009 (ip), vehicle: Klucel (hydroxypropylcellulose) (HPC) 99 % of control | endpoint: mean survival time, dose: 100.0 mg/kg/injection, schedule: Q01DX009 (ip), vehicle: Klucel (hydroxypropylcellulose) (HPC) 97 % of control | endpoint: mean survival time, dose: 200.0 mg/kg/injection, schedule: Q01DX009 (ip), vehicle: Klucel (hydroxypropylcellulose) (HPC) 97 % of control | endpoint: mean survival time, dose: 400.0 mg/kg/injection, schedule: Q01DX009 (ip), vehicle: Klucel (hydroxypropylcellulose) (HPC) 97 % of control

O=[N+]([O-])c1ccc2c(c1)Cc1cc(N(CBr)CBr)ccc1-2
inactive: endpoint: mean survival time, dose: 100.0 mg/kg/injection, schedule: Q04DX003 (ip), vehicle: saline 109 % of control | endpoint: mean survival time, dose: 200.0 mg/kg/injection, schedule: Q04DX003 (ip), vehicle: saline 107 % of control | endpoint: mean survival time, dose: 400.0 mg/kg/injection, schedule: Q04DX003 (ip), vehicle: saline 121 % of control

OCC(O)C1OC(c2ccccc2)OC(CO)C1O (configuration not stated)
inactive: endpoint: mean survival time, dose: 100.0 mg/kg/injection, schedule: Q04DX003 (ip), vehicle: saline + alcohol 106 % of control | endpoint: mean survival time, dose: 200.0 mg/kg/injection, schedule: Q04DX003 (ip), vehicle: saline + alcohol 100 % of control | endpoint: mean survival time, dose: 400.0 mg/kg/injection, schedule: Q04DX003 (ip), vehicle: saline + alcohol 95 % of control

CC1=CCCN(CCc2c[nH]c3ccccc23)C1
inactive: endpoint: mean survival time, dose: 50.0 mg/kg/injection, schedule: Q04DX003 (ip), vehicle: saline with Tween-80 97 % of control | [5] 90 % of control | [6] 101 % of control | [7] 90 % of control

CC[N+](C)(CC)Cc1cc(C(C)=O)c(C)o1
inactive: endpoint: mean survival time, dose: 6.25 mg/kg/injection, schedule: Q04DX002 (ip), vehicle: saline 98 % of control | endpoint: mean survival time, dose: 12.5 mg/kg/injection, schedule: Q04DX002 (ip), vehicle: saline 98 % of control | endpoint: mean survival time, dose: 25.0 mg/kg/injection, schedule: Q04DX002 (ip), vehicle: saline 102 % of control | endpoint: mean survival time, dose: 50.0 mg/kg/injection, schedule: Q04DX002 (ip), vehicle: saline 91 % of control | endpoint: median survival time, dose: 50.0 mg/kg/injection, schedule: Q04DX002 (ip), vehicle: saline 100 % of control

COc1ccccc1OCC1CO1 (configuration not stated)
inactive: [1] 101 % of control | [8] 102 % of control | [9] 102 % of control

C=CCOC(=N)C(Cl)(Cl)Cl
inactive: [10] 106 % of control | [11] 95 % of control

Nc1nc(N)c2nc(CN(Cc3ccccc3)c3ccc(C(=O)NC(CCC(=O)O)C(=O)O)cc3)cnc2n1 (configuration not stated)
inactive: endpoint: mean survival time, dose: 20.0 mg/kg/injection, schedule: Q01DX009 (ip), vehicle: sodium bicarbonate 109 % of control | endpoint: mean survival time, dose: 40.0 mg/kg/injection, schedule: Q01DX009 (ip), vehicle: sodium bicarbonate 114 % of control | endpoint: mean survival time, dose: 80.0 mg/kg/injection, schedule: Q01DX009 (ip), vehicle: sodium bicarbonate 114 % of control | endpoint: mean survival time, dose: 100.0 mg/kg/injection, schedule: Q01DX001 (ip), vehicle: sodium bicarbonate 94 % of control | endpoint: mean survival time, dose: 200.0 mg/kg/injection, schedule: Q01DX001 (ip), vehicle: sodium bicarbonate 91 % of control | endpoint: mean survival time, dose: 400.0 mg/kg/injection, schedule: Q01DX001 (ip), vehicle: sodium bicarbonate 91 % of control

Nc1ccc(S(=O)(=O)O)cc1[N+](=O)[O-]
inactive: [12] 92 % of control | [13] 97 % of control | [14] 101 % of control

CCN1/C(=C/C(C)=C/c2sc3ccc4ccccc4c3[n+]2CC)Sc2ccc3ccccc3c21
inactive: endpoint: mean survival time, dose: 0.02 mg/kg/injection, schedule: Q01DX009 (ip), vehicle: Klucel (hydroxypropylcellulose) (HPC) 101 % of control | endpoint: mean survival time, dose: 0.03 mg/kg/injection, schedule: Q01DX009 (ip), vehicle: Klucel (hydroxypropylcellulose) (HPC) 100 % of control | endpoint: mean survival time, dose: 0.05 mg/kg/injection, schedule: Q01DX009 (ip), vehicle: Klucel (hydroxypropylcellulose) (HPC) 113 % of control and 97 % of control | endpoint: mean survival time, dose: 0.1 mg/kg/injection, schedule: Q01DX009 (ip), vehicle: Klucel (hydroxypropylcellulose) (HPC) 100 % of control and 110 % of control | endpoint: mean survival time, dose: 0.2 mg/kg/injection, schedule: Q01DX009 (ip), vehicle: Klucel (hydroxypropylcellulose) (HPC) 103 % of control and 104 % of control | endpoint: mean survival time, dose: 0.4 mg/kg/injection, schedule: Q01DX009 (ip), vehicle: Klucel (hydroxypropylcellulose) (HPC) 105 % of control and 107 % of control | endpoint: mean survival time, dose: 0.8 mg/kg/injection, schedule: Q01DX009 (ip), vehicle: Klucel (hydroxypropylcellulose) (HPC) 119 % of control and 104 % of control

Br/C=C(\Br)C[N+]12CN3CN(CN(C3)C1)C2
inactive: endpoint: mean survival time, dose: 25.0 mg/kg/injection, schedule: Q01DX009 (ip), vehicle: saline with Tween-80 107 % of control | [10] 105 % of control | [11] 104 % of control

O/N=C\c1cc[n+](CC[n+]2ccc(/C=N/O)cc2)cc1
inactive: endpoint: mean survival time, dose: 25.0 mg/kg/injection, schedule: Q04DX002 (ip), vehicle: other 97 % of control | endpoint: mean survival time, dose: 50.0 mg/kg/injection, schedule: Q04DX002 (ip), vehicle: other 94 % of control | endpoint: mean survival time, dose: 100.0 mg/kg/injection, schedule: Q04DX002 (ip), vehicle: other 108 % of control

O=C(Nc1ccccc1[N+](=O)[O-])c1ccccc1
inactive: [5] 97 % of control | [6] 102 % of control | [7] 100 % of control | [15] 105 % of control | [16] 95 % of control | [17] 97 % of control

COc1cccc(/C=N/NC(=O)CNC(=O)Nc2cccc(Cl)c2)c1OC
inactive: [11] 101 % of control | [18] 109 % of control | [19] 103 % of control

O=c1cn[nH]c(=O)[nH]1
inactive: endpoint: median survival time, dose: 62.5 mg/kg/injection, schedule: Q01DX009 (ip), vehicle: saline 94 % of control and 100 % of control | endpoint: median survival time, dose: 125.0 mg/kg/injection, schedule: Q01DX009 (ip), vehicle: saline 100 % of control | endpoint: median survival time, dose: 250.0 mg/kg/injection, schedule: Q01DX009 (ip), vehicle: saline 122 % of control and 100 % of control | endpoint: median survival time, dose: 500.0 mg/kg/injection, schedule: Q01DX009 (ip), vehicle: saline 111 % of control and 112 % of control

COc1ccc(C(O)C(C)c2ccc([N+](=O)[O-])cc2)cc1 (configuration not stated)
inactive: [5] 106 % of control | [11] 105 % of control | [7] 93 % of control | [18] 103 % of control | [16] 98 % of control | [19] 94 % of control

CCOC(=O)c1ccc(N)c(C(O)(C(F)(F)F)C(F)(F)F)c1
inactive: [6] 103 % of control | [15] 97 % of control | [17] 97 % of control

COc1cc(OC)c(/C=C/c2cc3ccccc3c[n+]2C)c(OC)c1
inactive: endpoint: mean survival time, dose: 3.13 mg/kg/injection, schedule: Q01DX009 (ip), vehicle: saline with Tween-80 117 % of control | endpoint: mean survival time, dose: 6.25 mg/kg/injection, schedule: Q01DX009 (ip), vehicle: saline with Tween-80 117 % of control

CC(C)CC(NC(c1ccccc1)(c1ccccc1)c1ccccc1)C(=O)O (configuration not stated)
inactive: [1] 102 % of control | [8] 95 % of control | [9] 102 % of control

CCN(CC)CCN(C)C(=O)C(O)(c1ccccc1)c1ccccc1
inactive: [2] 100 % of control | [3] 103 % of control | [4] 102 % of control

COC(=O)CC(C)Cc1ccc(OC)c(OC)c1 (configuration not stated)
inactive: [12] 97 % of control | [6] 97 % of control | [13] 95 % of control | [15] 100 % of control | [14] 86 % of control | [17] 96 % of control
